{"source": "patent US20080004263A1", "about": "“Ligands of Follicle Stimulating Hormone Receptor and Methods of Use Thereof” (priority 2004, published 2008)", "target": "T1, FSH receptor (Homo sapiens, UniProt P23945)", "T1 construct": "expressed in transfected cells; host or cells: AV12 cells (stably transfected)", "T1 sequence (P23945 18-695)": "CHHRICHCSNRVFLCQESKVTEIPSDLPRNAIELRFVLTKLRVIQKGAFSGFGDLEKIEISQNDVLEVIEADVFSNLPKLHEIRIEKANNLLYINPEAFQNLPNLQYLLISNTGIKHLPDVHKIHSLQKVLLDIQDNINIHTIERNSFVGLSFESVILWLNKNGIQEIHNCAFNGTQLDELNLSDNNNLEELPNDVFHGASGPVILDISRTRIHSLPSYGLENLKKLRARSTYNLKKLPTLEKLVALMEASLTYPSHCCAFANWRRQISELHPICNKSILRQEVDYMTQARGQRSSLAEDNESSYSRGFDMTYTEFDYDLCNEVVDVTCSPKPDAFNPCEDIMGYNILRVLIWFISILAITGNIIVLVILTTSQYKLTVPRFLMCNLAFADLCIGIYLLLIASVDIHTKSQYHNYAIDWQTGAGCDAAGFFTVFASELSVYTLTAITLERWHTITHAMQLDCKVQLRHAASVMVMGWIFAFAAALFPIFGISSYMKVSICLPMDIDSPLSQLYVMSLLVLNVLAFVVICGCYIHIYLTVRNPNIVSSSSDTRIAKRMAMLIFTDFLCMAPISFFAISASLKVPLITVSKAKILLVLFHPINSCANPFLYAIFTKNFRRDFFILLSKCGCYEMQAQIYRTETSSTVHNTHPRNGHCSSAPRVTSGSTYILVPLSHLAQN", "assay": "cAMP Whole Cell assay (AlphaScreen cAMP detection) in AV12 cells stably transfected with FSH receptor", "format": "cell-based", "details": "AV12 cells expressing FSH receptor; average of two (2) trials", "method": "Compounds of the invention were tested for their ability to activate an FSH receptor protein using an AlphaScreen cAMP detection kit (Perkin Elmer; Cat. No. 6760600R).\nAV12 cells stably transfected with an expression vector containing an FSH construct and cultured under conditions permissive for cell surface expression of the encoded FSH receptor were harvested from flasks via non-enzymatic means. The cells were washed in PBS and resuspended in Stimulation Buffer. Live cells were counted using a hemacytometer and Trypan blue exclusion, and the cell concentration was adjusted to 2×10^5 cells/ml. A cAMP standard curve in buffer was prepared with a high final concentration of 1 μM, and serially diluted 1:5 in buffer (10 μL/well). Candidate compounds identified as per above (if frozen, thawed at room temperature) were added to their respective wells (in a 384-well plate) at increasing concentrations (5 μL/well; 10 μM final top assay concentration). To these wells, 2,000 cells in 10 μl of Buffer were added and the mixture as well as 5 μL of cAMP Acceptor Beads in Stimulation Buffer. Following a 30 minute incubation, 5 μL of Donor Bead/Biotinylated cAMP was added to each well, followed by incubation at RT for 2 hours. Plates were read in a Perkin Elmer AlphaQuest™ plate reader per manufacturer instructions.", "data": [{"smiles": "Cc1onc(-c2cccc(-c3ccc(-c4nnn[nH]4)cc3)c2)c1-c1csc(C2CCN(C(=O)Cc3cccs3)CC2)n1", "note": "[Example 38, 1-[4-(4-{5-Methyl-3-[4′-(1H-tetrazol-5-yl)-biphenyl-3-yl]-isoxazol-4-yl}-thiazol-2-yl)-piperidin-1-yl]-2-thiophen-2-yl-ethanone]", "values": [{"measurement": "EC50", "result": 1100, "unit": "nM"}]}]}
